Consider 25 compounds from US4590277A, “Acridinecarboxamide compounds” (Development Finance Corporation of New Zealand, priority 1982, dated 1986).

For data set [1], the system named is murine L1210 leukaemic cells. As to the kind of experiment: L1210 in vitro growth inhibition. The format is cell-based. To be noted: Mus musculus, drug added to cultures over 70 hours, 50% reduction of counted leukaemia cells, below 1000 nM considered significant, read-out: L1210 in vitro ID50. The protocol: L1210 in vitro--The culture methods used are described in detail elsewhere (B. C. Baguley and R. Nash, Europ. J. Cancer, 17, 671-679 (1981)). Acceptable reproducibility of data depends critically upon the maintenance of optimal culture conditions. L1210 cells were initially obtained from Dr I. Wodinsky, Arthur D. Little Inc., Boston, U.S.A., under the auspices of the National Cancer Institute.
Values below 1000 nM are considered significant.

For data set [2], the system named is P388 tumour cells. As to the kind of experiment: P388 in vivo, life span extension. As to conditions: for P388 in vivo ILS (percentage increase in life span): at optimal dose, days 1, 5 and 9, vs controls (average survival 11 days), greater than 20% statistically significant; for P388 in vivo Active: at the stated (optimal) dose. On the set-up: species or system mice (F1 hybrid, DBA-2 male x C57 B1 female); key to P388 in vivo Active: Y: implies a significant value of drug activity at the stated dose; N: implies no or not statistically significant activity. The protocol:
P388 in vivo--Tumour P388 cells were obtained as frozen stocks from Mason Research Inc., U.S.A. and passaged intraperitoneally according to standard methods (Cancer Chemother. Rep. 3, Part 3, page 9, 1972) in DBA-2 mice of either sex. Groups of six Fl hybrid mice (DBA-2 male x C57 B1 female, g weight 20±1 g) were injected intraperitoneally with 10^6 cells on day 0.
O.D.--optimal drug dose, in milligrams per kilogram, administered as a solution in 0.1 ml of 30% v/v ethyl alcohol in water on days 1, 5 and 9 after tumour inoculation. The drug is administered as a soluble acid addition salt.
ILS--percentage increase in life span of treated animals over that of groups of control animals injected with tumour alone. The average survival of control mice was 11 days. Values of ILS greater than 20% are considered statistically significant.
Y. implies a significant value of drug activity at the stated dose.
N. implies no or not statistically significant activity.

A short description of data set [3]: Reversed phase partition chromatography (lipophilic-hydrophilic balance). The format is physicochemical. As to conditions: linearly related to partition coefficients in 1-octanol/water, read-out: Rm. An excerpt: Rm=a measure of the compound's lipophilic-hydrophilic balance from reversed phase partition chromatography. Rm is linearly related to partition coefficients obtained in the 1-octanol/water system.

Data set [4] relates to Neisseria catarrhalis. As to the kind of experiment: Antibacterial activity.
The test system of data set [5] is Staphylococcus aureus. The data set is described as follows: Antibacterial activity.
In data set [6] the test system is Sarcina lutea. As to the kind of experiment: Antibacterial activity.
Data set [7] deals with Streptococcus faecalis. The data set is described as follows: Antibacterial activity.
The subject of data set [8] is Alcaligenes viscolatis. The data set is described as follows: Antibacterial activity.
The subject of data set [9] is Escherichia coli. As to the kind of experiment: Antibacterial activity.
For data set [10], the system named is Micrococcus lysodeikticus. The data set is described as follows: Antibacterial activity.
Data set [11] relates to Xanthomonas phaseoli. The data set is described as follows: Antibacterial activity.
In data set [12] the test system is Aerobacter aerogenes. The data set is described as follows: Antibacterial activity.
The subject of data set [13] is Bacillus subtilis. The data set is described as follows: Antibacterial activity.
For data set [14] the following is noted: cited from earlier work.

As for `CN(C)CCNC(=O)c1cccc2c(N)c3ccc(N)cc3nc12` [Compound 17], the IC50 in data set [1] was 35 nM. Also, in data set [2], the “P388 in vivo ILS (percentage increase in life span)” value was determined as 58% and the “P388 in vivo Active” value was “Y”.

`COc1ccc2c(N)c3cccc(C(=O)NCCN(C)C)c3nc2c1` [Compound 19]: in data set [1], the IC50 amounted to 151 nM. Moreover, in [2], the “P388 in vivo ILS (percentage increase in life span)” value is recorded as 17% and the “P388 in vivo Active” value is “N”.

In the case of `CNc1c2ccccc2nc2c(C(=O)NCCN(C)C)cccc12` [Compound 3], in [1], the IC50 is 15 nM. In addition, the chromatographic logP in data set [3] was -1.11. Further, in [2], the “P388 in vivo ILS (percentage increase in life span)” value is on record as 53% and the “P388 in vivo Active” value was “Y”.

Regarding `Cc1ccc2nc3c(C(=O)NCCN(C)C)cccc3c(N)c2c1` [Compound 22], in data set [1], the IC50 worked out at 605 nM. Moreover, in data set [2], the “P388 in vivo ILS (percentage increase in life span)” value is given as 0% and the “P388 in vivo Active” value is given as “N”.

Turning to `CN(C)CCNC(=O)c1cccc2c(N)c3cc(N)ccc3nc12` [Compound 21], the IC50 in [1] turned out to be 48 nM. Besides, the chromatographic logP in data set [3] is -1.64. In data set [2], the “P388 in vivo ILS (percentage increase in life span)” value worked out at 80% and the “P388 in vivo Active” value is on record as “Y”.

On to `CN(C)CCNC(=O)c1cccc2c(N)c3cccc(N)c3nc12` [Compound 12], for which, in [1], the IC50 stood at 18 nM. For the same compound, in [2], the “P388 in vivo ILS (percentage increase in life span)” value came to 58% and the “P388 in vivo Active” value is on record as “Y”.

Regarding `CCN(CC)CCNC(=O)c1cccc2c(N)c3ccccc3nc12` [Compound 7], in [1], the IC50 stood at 5.5 nM. Also, in data set [3], the chromatographic logP is -0.67. Moreover, in [2], the “P388 in vivo ILS (percentage increase in life span)” value was found to be 70% and the “P388 in vivo Active” value is recorded as “Y”.

Take `Cc1c2ccccc2nc2c(C(=O)NCCN(C)C)cccc12` [Compound 2, N-(2-dimethylaminoethyl)-9-methylacridine-4-carboxamide]: in data set [1], the IC50 was 66 nM. Moreover, in data set [3], the chromatographic logP is -0.3. Moreover, in data set [2], the “P388 in vivo ILS (percentage increase in life span)” value is given as 14% and the “P388 in vivo Active” value is “N”.

Turning to `CN(C)CCNC(=O)c1cccc2c(N)c3cccc([N+](=O)[O-])c3nc12` [Compound 11], the IC50 in data set [1] is 1.3 nM. Further, in data set [2], the “P388 in vivo ILS (percentage increase in life span)” value worked out at 39% and the “P388 in vivo Active” value is given as “Y”.

Turning to `CN(C)CCNC(=O)c1cccc2c(N)c3cc(Cl)ccc3nc12` [Compound 24], in data set [1], the IC50 was 722 nM. Further, in data set [2], the “P388 in vivo ILS (percentage increase in life span)” value amounted to 8% and the “P388 in vivo Active” value is listed as “N”.

`CN(C)CCNC(=O)c1cc([N+](=O)[O-])cc2c(N)c3ccccc3nc12` [Compound 9]: the IC50 in data set [1] was 319 nM. Moreover, in [2], the “P388 in vivo ILS (percentage increase in life span)” value stood at 25% and the “P388 in vivo Active” value is given as “Y”.

As to `Cc1ccc2c(N)c3cccc(C(=O)NCCN(C)C)c3nc2c1` [Compound 18], the IC50 in data set [1] worked out at 55 nM. Further, the chromatographic logP in data set [3] was -0.82. For the same compound, in [2], the “P388 in vivo ILS (percentage increase in life span)” value turned out to be 20% and the “P388 in vivo Active” value was “N”.

Turning to `CN(C)CCNC(=O)c1cccc2c(N)c3ccccc3nc12` [Compound 4], the Antibacterial activity entry in data set [4], in [5], in data set [6], in data set [7], in [8] and in data set [9] was “active” each time. The Antibacterial activity entry in data set [10], in data set [11], in [12] and in data set [13] was “active” in each case. For the same compound, in data set [3], the chromatographic logP is -1.11. In addition, in data set [2], the “P388 in vivo ILS (percentage increase in life span)” value is on record as 98%. In addition, the “P388 in vivo Active” value in [2] is “Y”.

As to `CN(C)CCNC(=O)c1cccc2c(N)c3cc([N+](=O)[O-])ccc3nc12.Cl.Cl` [Compound 20, N-(2-dimethylaminoethyl)-9-amino-7-nitroacridine-4-carboxamide dihydrochloride], the IC50 in data set [1] came to 104 nM. Moreover, the chromatographic logP in data set [3] was -1.29. Also, in data set [2], the “P388 in vivo ILS (percentage increase in life span)” value is 34% and the “P388 in vivo Active” value is on record as “Y”.

As to `COc1ccc2nc3c(C(=O)NCCN(C)C)cccc3c(N)c2c1` [Compound 23], the IC50 in data set [1] was 518 nM. In addition, in data set [2], the “P388 in vivo ILS (percentage increase in life span)” value is given as 4% and the “P388 in vivo Active” value was “N”.

Turning to `COc1cccc2c(N)c3cccc(C(=O)NCCN(C)C)c3nc12` [Compound 14], in [1], the IC50 is 4.3 nM. Besides, the chromatographic logP in data set [3] was -1.06. In data set [2], the “P388 in vivo ILS (percentage increase in life span)” value is reported as 81% and the “P388 in vivo Active” value is listed as “Y”.

Take `CN(C)CCNC(=O)c1cccc2c(N)c3ccc([N+](=O)[O-])cc3nc12` [Compound 16]: the IC50 in [1] is 0.05 nM. Further, in [2], the “P388 in vivo ILS (percentage increase in life span)” value is on record as 23% and the “P388 in vivo Active” value is “Y”.

For the compound `CN(C)CCNC(=O)c1cccc2c(N)c3cccc(Cl)c3nc12` [Compound 15], the IC50 in data set [1] was 2.9 nM. Further, in data set [2], the “P388 in vivo ILS (percentage increase in life span)” value was found to be 81% and the “P388 in vivo Active” value is “Y”.

As for `Nc1c2ccccc2nc2c(C(=O)NCCNCCO)cccc12` [Compound 6], the IC50 in [1] is 77 nM. For the same compound, in data set [3], the chromatographic logP was -1.06. For the same compound, in data set [2], the “P388 in vivo ILS (percentage increase in life span)” value was 80% and the “P388 in vivo Active” value was “Y”.

In the case of `CCN(CC)CCCC(C)Nc1c2ccc(Cl)cc2nc2ccc(OC)cc12` (centres unmarked) [mepacrine], the “Local clinical cytostatic effects” value in data set [14] is reported as “Local clinical cytostatic effects”.

In the case of `Cc1cccc2c(N)c3cccc(C(=O)NCCN(C)C)c3nc12` [Compound 13], the IC50 in [1] was found to be 0.33 nM. In addition, in [3], the chromatographic logP is -1.02. Besides, in [2], the “P388 in vivo ILS (percentage increase in life span)” value is 107% and the “P388 in vivo Active” value is reported as “Y”.

In the case of `CN(C)CCNC(=O)c1cc(N)cc2c(N)c3ccccc3nc12` [Compound 10], the IC50 in [1] worked out at 162 nM. In [2], the “P388 in vivo ILS (percentage increase in life span)” value worked out at 28% and the “P388 in vivo Active” value was “Y”.

Consider `CN(C)CCNC(=O)c1cccc2cc3ccccc3nc12` [Compound 1], for which the IC50 in data set [1] stood at 105 nM. The chromatographic logP in data set [3] is -0.2. In data set [2], the “P388 in vivo ILS (percentage increase in life span)” value is 91% and the “P388 in vivo Active” value was “Y”.

Turning to `NCCNC(=O)c1cccc2c(N)c3ccccc3nc12` [Compound 8], in [1], the IC50 was determined as 414 nM. In addition, the chromatographic logP in data set [3] is -1.18. In data set [2], the “P388 in vivo ILS (percentage increase in life span)” value stood at 71% and the “P388 in vivo Active” value is given as “Y”.

Regarding `CN(C)CCCNC(=O)c1cccc2c(N)c3ccccc3nc12` [Compound 5], the IC50 in data set [1] turned out to be 157 nM. For the same compound, the chromatographic logP in data set [3] was -0.93. For the same compound, in data set [2], the “P388 in vivo ILS (percentage increase in life span)” value is given as 0% and the “P388 in vivo Active” value is listed as “N”.
